These results are taken from US8999956B2, “N-[(het)arylalkyl)] pyrazole(thio)carboxamides and their heterosubstituted analogues” (Bayer Intellectual Property GmbH, priority 2010, dated 2015).

By logP is commonly meant the decadic logarithm of the partition coefficient of the neutral form, usually between octanol and water. Low values mean a more hydrophilic compound, high ones a more lipophilic compound.

The subject of the first series is Pyrenophora teres. The series is described as follows: In vivo preventive test on Pyrenophora teres (barley). The conditions noted are these: 500 ppm of active ingredient, evaluated 7-9 days after inoculation. As for the experimental part:
Solvent: 49 parts by weight of N,N-dimethylformamide Emulsifier: 1 part by weight of alkylaryl polyglycol ether To produce a suitable preparation of active compound, 1 part by weight of active compound is mixed with the stated amounts of solvent and emulsifier, and the concentrate is diluted with water to the desired concentration. To test for preventive activity, young plants are sprayed with the preparation of active compound at the stated rate of application. One day after this treatment, the plants are inoculated with an aqueous spore suspension of Pyrenophora teres.
Consider `CN(C(=O)c1c(C(F)F)nn(C)c1F)C(COc1ccc2ccccc2c1)C1CC1` (racemic) [Example 139], for which the Efficacy is on record as 90%.

For the compound `CC(COc1ccccc1)NC(=O)c1c(C(F)F)nn(C)c1F` (stereo not shown) [Example 13], the Efficacy turned out to be 94%.

Take `CC(COc1ccccc1)NC(=O)c1c(C(F)F)nn(C)c1Cl` (stereo not shown) [Example 14]: the Efficacy came out at 95%.

Consider `Cn1nc(C(F)F)c(C(=O)N(CCOc2ccc(-c3ccccc3)cc2)C2CC2)c1Cl` [Example 28], for which the Efficacy was 90%.

System in a further series: not listed separately
The experiment in a line: log P by HPLC on reversed-phase column (EEC Directive 79/831 Annex V.A8). Format: physicochemical.
Conditions: not given
As for the experimental part: In table 1, the log P values were determined in accordance with EEC Directive 79/831 Annex V.A8 by HPLC (High Performance Liquid Chromatography) on a reversed-phase column (C18), using the method described below: Temperature: 40° C.; […]
`CN(C(=O)c1c(C(F)F)nn(C)c1F)C(COc1ccc2ccccc2c1)C1CC1` (racemic) [Example 139] returned a logP of 3.76.

In the case of `CC(COc1ccccc1)NC(=O)c1c(C(F)F)nn(C)c1F` (stereo not shown) [Example 13], the logP worked out at 2.66.

With `CC(COc1ccccc1)NC(=O)c1c(C(F)F)nn(C)c1Cl` (stereo not shown) [Example 14], the log partition coefficient (logP) turned out to be 2.84.

Compound `Cn1nc(C(F)F)c(C(=O)N(CCOc2ccc(-c3ccccc3)cc2)C2CC2)c1Cl` [Example 28] had a logP of 4.03.

Regarding `CC(COc1c(Cl)cc(Cl)cc1Cl)NC(=O)c1c(C(F)F)nn(C)c1Cl` (stereo not shown) [Example 211], the logP amounted to 4.20.

Take `CC(COc1c(Cl)cc(Cl)cc1Cl)NC(=O)c1c(C(F)F)nn(C)c1F` (stereo not shown) [Example 212]: the lipophilicity (logP) is 3.92.

Turning to `CCC(COc1cccc2ccccc12)NC(=O)c1c(C(F)F)nn(C)c1Cl` (stereo not shown) [Example 223], the logP was found to be 3.85.

As for `CN(CC(=O)OCc1ccccc1)C(=O)c1c(C(F)F)nn(C)c1F` [Example 226], the logP is given as 2.44.

Regarding `CC(C)C(C(=O)OCc1ccccc1)N(C)C(=O)c1c(C(F)F)nn(C)c1F` (stereo not shown) [Example 227], the logP is 3.35.

`CN(CC(=O)OCc1ccccc1)C(=O)c1c(C(F)F)nn(C)c1Cl` [Example 228] gave a logP of 2.57.

On to `CC(C)C(C(=O)OCc1ccccc1)N(C)C(=O)c1c(C(F)F)nn(C)c1Cl` (stereo not shown) [Example 229], for which the logP was 3.48.

The compound `CN(CCN(C)C(=O)c1c(C(F)F)nn(C)c1F)C(=O)c1ccccc1` [Example 230] had a logP of 1.66.

Take `CN(CCN(C)C(=O)c1c(C(F)F)nn(C)c1Cl)C(=O)c1ccccc1` [Example 231]: the logP was 1.76. The logP values of the last two compounds are within 0.2 log units of each other.

Regarding `CN(CCC(=O)Nc1ccc(Cl)c(Cl)c1)C(=O)c1c(C(F)F)nn(C)c1F` [Example 232], the logP worked out at 2.71.

`CN(CCC(=O)Nc1ccc(Cl)c(Cl)c1)C(=O)c1c(C(F)F)nn(C)c1Cl` [Example 233]: the logP was 2.86.

With `CCCN(CCCOc1c(C)cc(C)cc1C)C(=O)c1c(C(F)F)nn(C)c1Cl` [Example 234], the logP stood at 4.39.

As to `CCCN(CCCOc1c(C)cc(C)cc1C)C(=O)c1c(C(F)F)nn(C)c1F` [Example 235], the logP came to 4.27.

For the compound `CC(CSCc1ccco1)N(C(=O)c1c(C(F)F)nn(C)c1F)C1CC1` (stereo not shown) [Example 236], the logP is 3.11.

The compound `CC(CSCc1ccco1)N(C(=O)c1c(C(F)F)nn(C)c1Cl)C1CC1` (stereo not shown) [Example 237] gave a logP of 3.27.

For `CC(CSCc1ccco1)N(C)C(=O)c1c(C(F)F)nn(C)c1F` (stereo not shown) [Example 238], the logP is given as 2.49.

For `CC(CSCc1ccco1)N(C)C(=O)c1c(C(F)F)nn(C)c1Cl` (stereo not shown) [Example 239], the log partition coefficient (logP) is listed as 2.64.

Turning to `CN(C(=O)c1c(C(F)F)nn(C)c1F)C1CCCCC1Cc1ccccc1` (stereo not shown) [Example 253], the logP amounted to 3.72.

`CN(C(=O)c1c(C(F)F)nn(C)c1Cl)C1CCCCC1Cc1ccccc1` (stereo not shown) [Example 254] came in with a logP of 3.87. The logP values of the last two compounds are within 0.2 log units of each other.

As for `Cn1nc(C(F)F)c(C(=O)NC2CCCC2Sc2ncccn2)c1Cl` (stereo not shown) [Example 257], the logP amounted to 2.26.

`CN(CC=Cc1ccccc1)C(=O)c1c(C(F)F)nn(C)c1Cl` [Example 261]: the lipophilicity (logP) came to 2.84.

In turn, `CN(CC=Cc1ccccc1)C(=O)c1c(C(F)F)nn(C)c1F` [Example 262] showed a logP of 2.73.

For `CCN(CC=Cc1ccccc1)C(=O)c1c(C(F)F)nn(C)c1Cl` [Example 263], the logP is recorded as 3.17.

The compound `CCN(CC=Cc1ccccc1)C(=O)c1c(C(F)F)nn(C)c1F` [Example 264] returned a logP of 3.02.

Compound `COCCN(CC=Cc1ccccc1)C(=O)c1c(C(F)F)nn(C)c1Cl` [Example 265] came in with a logP of 3.02.

Regarding `COCCN(CC=Cc1ccccc1)C(=O)c1c(C(F)F)nn(C)c1F` [Example 266], the logP came out at 2.86.

With `Cn1nc(C(F)F)c(C(=O)N(CC#Cc2ccccc2)C(C)(C)C)c1F` [Example 267], the logP was 3.83.

`Cn1nc(C(F)F)c(C(=O)N(CC#Cc2ccccc2)C(C)(C)C)c1Cl` [Example 268] displayed a logP of 3.96.

Compound `CN(CC#Cc1ccccc1)C(=O)c1c(C(F)F)nn(C)c1F` [Example 269] returned a logP of 2.78.

With `CN(CC#Cc1ccccc1)C(=O)c1c(C(F)F)nn(C)c1Cl` [Example 270], the logP turned out to be 2.92.

The compound `Cn1nc(C(F)F)c(C(=O)N(CC#Cc2ccccc2)C2CC2)c1Cl` [Example 272] registered a logP of 3.33.

`Cn1nc(C(F)F)c(C(=O)N(CC#Cc2ccccc2)C2CCCC2)c1F` [Example 273]: the logP worked out at 3.73.

For the compound `Cn1nc(C(F)F)c(C(=O)N(CC#Cc2ccccc2)C2CCCC2)c1Cl` [Example 274], the logP stood at 3.92.

For the compound `Cn1nc(C(F)F)c(C(=O)N(CC#Cc2cc3ccccc3o2)C2CC2)c1F` [Example 275], the logP is on record as 3.55.

The compound `Cn1nc(C(F)F)c(C(=O)N(CC#Cc2cc3ccccc3s2)C2CC2)c1F` [Example 276] came in with a logP of 3.85.

`Cn1nc(C(F)F)c(C(=O)NCC#Cc2cc3ccccc3s2)c1F` [Example 277] displayed a logP of 3.19.

`CN(CC#Cc1cc2ccccc2s1)C(=O)c1c(C(F)F)nn(C)c1F` [Example 278]: the logP amounted to 3.39.

Compound `Cn1nc(C(F)F)c(C(=O)N(CC#Cc2ccco2)C2CC2)c1F` [Example 279] showed a logP of 2.70.

Take `Cn1nc(C(F)F)c(C(=O)NCC#Cc2ccco2)c1F` [Example 280]: the logP stood at 2.14.

With `CN(CC#Cc1ccco1)C(=O)c1c(C(F)F)nn(C)c1F` [Example 281], the logP came out at 2.32. This logP and that of the compound before are within 0.2 log units of each other.

Consider `Cn1nc(C(F)F)c(C(=O)N(CC#Cc2cccs2)C2CC2)c1F` [Example 282], for which the logP is 3.00.

With `Cc1ccsc1C#CCN(C(=O)c1c(C(F)F)nn(C)c1F)C1CC1` [Example 283], the logP is on record as 3.31.

Consider `Cn1nc(C(F)F)c(C(=O)NC(C)(C)C#Cc2ccc(C#N)cc2)c1F` [Example 284], for which the logP is 2.82.

The compound `Cc1ccc2sc(C#CCN(C(=O)c3c(C(F)F)nn(C)c3F)C3CC3)cc2c1` [Example 285] yielded a logP of 4.26.

In the case of `Cc1ccc(C#CCN(C(=O)c2c(C(F)F)nn(C)c2F)C2CC2)s1` [Example 286], the lipophilicity (logP) is given as 3.37.

Regarding `CC(CC[Si](C)(C)C)N(C(=O)c1c(C(F)F)nn(C)c1F)C1CC1` (stereo not shown) [Example 304], the logP is 4.39.

Take `COCCCCNC(=O)c1c(C(F)F)nn(C)c1F` [Example 305]: the logP turned out to be 1.40.

In the case of `CCCCC1CCCC1NC(=S)c1c(C(F)F)nn(C)c1F` (stereo not shown) [Example 308], the logP was 4.39.

`Cn1nc(C(F)F)c(C(=S)NC2CCCC2CCC(C)(C)C)c1F` (stereo not shown) [Example 321] came in with a logP of 5.01.

`CC1CC(N(C(=S)c2c(C(F)F)nn(C)c2F)C2CC2)CC(C)(C)C1` (stereo not shown) [Example 323] came in with a logP of 4.96.

Compound `CCCCCCC1CCCCC1NC(=S)c1c(C(F)F)nn(C)c1F` (stereo not shown) [Example 327] showed a logP of 5.81.

`CCCCC1CCCCC1NC(=S)c1c(C(F)F)nn(C)c1F` (stereo not shown) [Example 332] showed a logP of 4.86.

`CC(C)CC(C)C1CCCCC1NC(=S)c1c(C(F)F)nn(C)c1Cl` (stereo not shown) [Example 336] showed a logP of 5.42.

The compound `CCCC1CCCCC1NC(=S)c1c(C(F)F)nn(C)c1F` (stereo not shown) [Example 345] displayed a lipophilicity (logP) of 4.21.

In turn, `C=CCC1CCCCC1N(C(=O)c1c(C(F)F)nn(C)c1F)C1CC1` (stereo not shown) [Example 346] returned a logP of 3.94.

For the compound `C=CCC1CCCCC1N(C(=O)c1c(C(F)F)nn(C)c1Cl)C1CC1` (stereo not shown) [Example 347], the logP is reported as 4.16.

`Cn1nc(C(F)F)c(C(=O)NC2CCCCC2C(C)(C)C)c1Cl` (stereo not shown) [Example 348] showed a logP of 4.15. The logP values of the last two compounds are within 0.2 log units of each other.

The compound `Cn1nc(C(F)F)c(C(=S)NC2CCCCC2CCC(C)(C)C)c1Cl` (stereo not shown) [Example 356] returned a logP of 5.60.

For `CCC1(C)CC(NC(=O)c2c(C(F)F)nn(C)c2Cl)CC(C)(C)C1` (stereo not shown) [Example 362], the logP is 4.44.

In turn, `CCC1(C)CC(NC(=O)c2c(C(F)F)nn(C)c2F)CC(C)(C)C1` (stereo not shown) [Example 363] gave a logP of 4.23.

In the case of `Cn1nc(C(F)F)c(C(=O)N(C2CC2)C2CCCC2C2CCCC2)c1Cl` (stereo not shown) [Example 369], the logP was determined as 4.83.

Take `CC(CC1CCCCC1)N(C(=O)c1c(C(F)F)nn(C)c1Cl)C1CC1` (stereo not shown) [Example 371]: the logP is listed as 4.56.

`Cn1nc(C(F)F)c(C(=O)N(C2CC2)C2CCCCC2C2CCCCC2)c1Cl` (stereo not shown) [Example 373] had a logP of 5.59.

`Cn1nc(C(F)F)c(C(=O)NC2CCCCC2C2CCCCC2)c1Cl` (stereo not shown) [Example 375] came in with a logP of 4.56.

In the case of `Cn1nc(C(F)F)c(C(=O)N(C2CC2)C2CCCCC2C2=CCCCC2)c1Cl` (stereo not shown) [Example 377], the logP came out at 5.17.

`CC#CC1(NC(=O)c2c(C(F)F)nn(C)c2F)CCCCC1` [Example 382] showed a logP of 2.90.

In the case of `CC#CC1(NC(=O)c2c(C(F)F)nn(C)c2Cl)CCCCC1` [Example 383], the logP stood at 3.11.

As to `C#CC1(NC(=O)c2c(C(F)F)nn(C)c2Cl)CCCCC1` [Example 384], the logP is given as 2.73.

The compound `C#CC1(NC(=O)c2c(C(F)F)nn(C)c2F)CCCCC1` [Example 385] displayed a logP of 2.56. This logP and that of the compound before are within 0.2 log units of each other.

On to `Cn1nc(C(F)F)c(C(=O)NC2(C(F)(F)F)CCCCC2)c1Cl` [Example 386], for which the logP amounted to 3.15.

In turn, `Cn1nc(C(F)F)c(C(=O)NC2(C(F)(F)F)CCCCC2)c1F` [Example 387] came in with a logP of 3.00. The logP values of the last two compounds are within 0.2 log units of each other.
